# From PubChem BioAssay (NCI)
#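 In this assay, cells in 96-well plates receive the compound at five concentrations for 48 hours. Endpoints are linearly interpolated between the surrounding concentrations. GI50 = concentration required for 50% inhibition of growth. TGI denotes the concentration required for complete inhibition of growth.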
# Experiments:
# Test in all cases: NCI-60 cell line screen, 48 h
# 786-0 renal = system: 786-0 renal
# A498 renal = system: A498 renal
# A549 NSCLC = system: A549 NSCLC
# ACHN renal = system: ACHN renal
# BT-549 breast = system: BT-549 breast
# CAKI-1 renal = system: CAKI-1 renal
# CCRF-CEM leukemia = system: CCRF-CEM leukemia
# COLO 205 colon = system: COLO 205 colon
# DU-145 prostate = system: DU-145 prostate
# EKVX NSCLC = system: EKVX NSCLC
# HCC-2998 colon = system: HCC-2998 colon
# HCT-116 colon = system: HCT-116 colon
# HCT-15 colon = system: HCT-15 colon
# HL-60(TB) leukemia = system: HL-60(TB) leukemia
# HOP-62 NSCLC = system: HOP-62 NSCLC
# HOP-92 NSCLC = system: HOP-92 NSCLC
# HS 578T breast = system: HS 578T breast
# HT29 colon = system: HT29 colon
# IGROV1 ovarian = system: IGROV1 ovarian
# K-562 leukemia = system: K-562 leukemia
# KM12 colon = system: KM12 colon
# LOX IMVI melanoma = system: LOX IMVI melanoma
# M14 melanoma = system: M14 melanoma
# MALME-3M melanoma = system: MALME-3M melanoma
# MCF7 breast = system: MCF7 breast
# MDA-MB-231 breast = system: MDA-MB-231 breast
# MDA-MB-435 = system: MDA-MB-435
# MDA-MB-468 breast = system: MDA-MB-468 breast
# MOLT-4 leukemia = system: MOLT-4 leukemia
# NCI-H226 lung = system: NCI-H226 lung
# NCI-H23 lung = system: NCI-H23 lung
# NCI-H460 lung = system: NCI-H460 lung
# NCI-H522 lung = system: NCI-H522 lung
# OVCAR-3 ovarian = system: OVCAR-3 ovarian
# OVCAR-4 ovarian = system: OVCAR-4 ovarian
# OVCAR-5 ovarian = system: OVCAR-5 ovarian
# OVCAR-8 ovarian = system: OVCAR-8 ovarian
# PC-3 prostate = system: PC-3 prostate
# RPMI-8226 leukemia = system: RPMI-8226 leukemia
# RXF 393 renal = system: RXF 393 renal
# SF-268 CNS = system: SF-268 CNS
# SF-295 CNS = system: SF-295 CNS
# SF-539 CNS = system: SF-539 CNS
# SK-MEL-2 melanoma = system: SK-MEL-2 melanoma
# SK-MEL-28 melanoma = system: SK-MEL-28 melanoma
# SK-MEL-5 melanoma = system: SK-MEL-5 melanoma
# SK-OV-3 ovarian = system: SK-OV-3 ovarian
# SN12C renal = system: SN12C renal
# SNB-19 CNS = system: SNB-19 CNS
# SR leukemia = system: SR leukemia
# SW-620 colon = system: SW-620 colon
# T-47D breast = system: T-47D breast
# TK-10 renal = system: TK-10 renal
# U251 CNS = system: U251 CNS
# UACC-257 melanoma = system: UACC-257 melanoma
# UACC-62 melanoma = system: UACC-62 melanoma
# UO-31 renal = system: UO-31 renal
compound,measurement,setting,value
Cn1cc(-c2cc(N)n3nc(-c4c[nH]c5ccc(Cl)cc45)cc3n2)c2cc(Br)cnc21,GI50,786-0 renal,1.64 µM
same,TGI,786-0 renal,3.06 µM
same,GI50,A498 renal,13.1 µM
same,TGI,A498 renal,29.4 µM
same,GI50,A549 NSCLC,2.13 µM
same,TGI,A549 NSCLC,6.32 µM
same,GI50,ACHN renal,1.87 µM
same,TGI,ACHN renal,3.92 µM
same,GI50,BT-549 breast,13.8 µM
same,TGI,BT-549 breast,28.6 µM
same,GI50,CAKI-1 renal,3.07 µM
same,TGI,CAKI-1 renal,16.7 µM
same,GI50,CCRF-CEM leukemia,3.32 µM
same,TGI,CCRF-CEM leukemia,10.7 µM
same,GI50,COLO 205 colon,2.83 µM
same,TGI,COLO 205 colon,6.04 µM
same,GI50,DU-145 prostate,3.18 µM
same,TGI,DU-145 prostate,9.77 µM
same,GI50,EKVX NSCLC,3.04 µM
same,TGI,EKVX NSCLC,14.1 µM
same,GI50,HCC-2998 colon,1.76 µM
same,TGI,HCC-2998 colon,3.36 µM
same,GI50,HCT-116 colon,2.01 µM
same,TGI,HCT-116 colon,4.03 µM
same,GI50,HCT-15 colon,1.61 µM
same,TGI,HCT-15 colon,3.02 µM
same,GI50,HL-60(TB) leukemia,2.06 µM
same,TGI,HL-60(TB) leukemia,5.15 µM
same,GI50,HOP-62 NSCLC,4.41 µM
same,TGI,HOP-62 NSCLC,27.6 µM
same,GI50,HOP-92 NSCLC,2.16 µM
same,TGI,HOP-92 NSCLC,4.58 µM
same,GI50,HS 578T breast,12.6 µM
same,TGI,HS 578T breast,55.5 µM
same,GI50,HT29 colon,1.93 µM
same,TGI,HT29 colon,3.84 µM
same,GI50,IGROV1 ovarian,1.94 µM
same,TGI,IGROV1 ovarian,4.47 µM
same,GI50,K-562 leukemia,2.4 µM
same,TGI,K-562 leukemia,6.27 µM
same,GI50,KM12 colon,2.17 µM
same,TGI,KM12 colon,4.87 µM
same,GI50,LOX IMVI melanoma,1.95 µM
same,TGI,LOX IMVI melanoma,3.44 µM
same,GI50,M14 melanoma,2.37 µM
same,TGI,M14 melanoma,5.88 µM
same,GI50,MALME-3M melanoma,2.18 µM
same,TGI,MALME-3M melanoma,5.19 µM
same,GI50,MCF7 breast,1.77 µM
same,TGI,MCF7 breast,3.31 µM
same,GI50,MDA-MB-231 breast,1.98 µM
same,TGI,MDA-MB-231 breast,4.27 µM
same,GI50,MDA-MB-435,2.06 µM
same,TGI,MDA-MB-435,4.48 µM
same,GI50,MDA-MB-468 breast,1.32 µM
same,TGI,MDA-MB-468 breast,2.73 µM
same,GI50,MOLT-4 leukemia,1.76 µM
same,TGI,MOLT-4 leukemia,5.68 µM
same,GI50,NCI-H226 lung,2.23 µM
same,TGI,NCI-H226 lung,11.5 µM
same,GI50,NCI-H23 lung,2.63 µM
same,TGI,NCI-H23 lung,7.83 µM
same,GI50,NCI-H460 lung,1.92 µM
same,TGI,NCI-H460 lung,3.81 µM
same,GI50,NCI-H522 lung,1.9 µM
same,TGI,NCI-H522 lung,3.88 µM
same,GI50,OVCAR-3 ovarian,3.23 µM
same,TGI,OVCAR-3 ovarian,9.96 µM
same,GI50,OVCAR-4 ovarian,2.98 µM
same,TGI,OVCAR-4 ovarian,9.01 µM
same,GI50,OVCAR-5 ovarian,2.01 µM
same,TGI,OVCAR-5 ovarian,6.48 µM
same,GI50,OVCAR-8 ovarian,2.29 µM
same,TGI,OVCAR-8 ovarian,5.22 µM
same,GI50,PC-3 prostate,2.27 µM
same,TGI,PC-3 prostate,5.79 µM
same,GI50,RPMI-8226 leukemia,3.88 µM
same,TGI,RPMI-8226 leukemia,34 µM
same,GI50,RXF 393 renal,1.72 µM
same,TGI,RXF 393 renal,3.32 µM
same,GI50,SF-268 CNS,7.39 µM
same,TGI,SF-268 CNS,43.9 µM
same,GI50,SF-295 CNS,1.84 µM
same,TGI,SF-295 CNS,4.04 µM
same,GI50,SF-539 CNS,1.66 µM
same,TGI,SF-539 CNS,3.22 µM
same,GI50,SK-MEL-2 melanoma,2.63 µM
same,TGI,SK-MEL-2 melanoma,7.51 µM
same,GI50,SK-MEL-28 melanoma,2.1 µM
same,TGI,SK-MEL-28 melanoma,4.97 µM
same,GI50,SK-MEL-5 melanoma,4.35 µM
same,TGI,SK-MEL-5 melanoma,17 µM
same,GI50,SK-OV-3 ovarian,18.6 µM
same,TGI,SK-OV-3 ovarian,72.1 µM
same,GI50,SN12C renal,10.1 µM
same,TGI,SN12C renal,26.4 µM
same,GI50,SNB-19 CNS,3.25 µM
same,TGI,SNB-19 CNS,11.5 µM
same,GI50,SR leukemia,2.27 µM
same,TGI,SR leukemia,> 100 µM
same,GI50,SW-620 colon,1.82 µM
same,TGI,SW-620 colon,3.5 µM
same,GI50,T-47D breast,2.38 µM
same,TGI,T-47D breast,7.3 µM
same,GI50,TK-10 renal,2.27 µM
same,TGI,TK-10 renal,7.2 µM
same,GI50,U251 CNS,1.81 µM
same,TGI,U251 CNS,3.39 µM
same,GI50,UACC-257 melanoma,12.5 µM
same,TGI,UACC-257 melanoma,25.5 µM
same,GI50,UACC-62 melanoma,1.69 µM
same,TGI,UACC-62 melanoma,3.6 µM
same,GI50,UO-31 renal,2.93 µM
same,TGI,UO-31 renal,12.1 µM
